Test results: patent US20100098633A1, “SELECTIVE SEPRASE INHIBITORS” (Molecular Insight Pharmaceuticals, Inc., priority 2008, published 2010)

Molecular target: T1, recombinant human seprase (rhFAP) (Homo sapiens, UniProt Q12884)
T1 sequence (Q12884 26-760 limits assumed): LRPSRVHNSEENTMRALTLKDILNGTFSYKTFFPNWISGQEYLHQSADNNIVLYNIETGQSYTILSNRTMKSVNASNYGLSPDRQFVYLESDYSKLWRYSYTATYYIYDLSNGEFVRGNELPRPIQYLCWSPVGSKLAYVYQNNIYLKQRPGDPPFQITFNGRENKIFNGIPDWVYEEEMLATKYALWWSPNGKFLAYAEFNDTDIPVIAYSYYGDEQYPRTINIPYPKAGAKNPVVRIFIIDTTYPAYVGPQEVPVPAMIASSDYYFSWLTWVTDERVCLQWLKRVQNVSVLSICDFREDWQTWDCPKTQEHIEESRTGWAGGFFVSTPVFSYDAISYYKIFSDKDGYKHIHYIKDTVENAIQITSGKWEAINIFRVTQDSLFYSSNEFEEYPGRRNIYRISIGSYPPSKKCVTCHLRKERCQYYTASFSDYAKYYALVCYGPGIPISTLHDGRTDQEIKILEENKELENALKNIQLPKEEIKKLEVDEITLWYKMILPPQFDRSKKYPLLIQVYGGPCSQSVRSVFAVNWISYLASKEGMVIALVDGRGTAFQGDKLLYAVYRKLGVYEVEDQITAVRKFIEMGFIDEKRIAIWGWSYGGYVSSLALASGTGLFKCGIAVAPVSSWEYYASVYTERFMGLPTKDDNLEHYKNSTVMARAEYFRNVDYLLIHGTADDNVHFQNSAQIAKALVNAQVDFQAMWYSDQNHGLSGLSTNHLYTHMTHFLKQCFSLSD
Test: Inhibition of enzymatic activity of recombinant human seprase on Z-Gly-Pro-AMC (fluorescence)
Format: biochemical
Conditions: for IC50: in vitro data against seprase, read-out: FAP (IC50 nM); for Percent of Control: initial velocity normalized to control without test compound, 50 μM Z-Gly-Pro-AMC
Method: In vitro assaying of compounds for inhibition of dipeptidyl peptidase activity of seprase and DPP-IV can be achieved following the described in Edosada C. Y. et al. J. Biolog. Chem. 2006, 281, 7437-7444.
Selected test compounds were examined for their ability to inhibit the enzymatic activity of recombinant human seprase (rhFAP) on the substrate, benzyloxycarbonyl-Gly-Pro-7-amido-4-methylcoumarin (Z-Gly-Pro-AMC). In brief, 10 μg rhFAP was added to 50 μM Z-Gly-Pro-AMC in the presence of increasing concentrations of test compound, and enzymatic activity was determined by monitoring fluorescence (Ex. 355 nm/Em. 460 nm). Compound 1051 is the known inhibitor, Cbz-Gly-boroproline. Initial velocity of the reaction was calculated and normalized to control reactions conducted in the absence of test compound.
The inhibition was measured by the half maximal inhibitory concentration (IC50) of a compound of interest. The IC50 indicates how much of a particular compound is needed to inhibit seprase by half.

Question: “Re(CO)3[1-(6-(bis(pyridin-2-ylmethyl)amino)hexanoyl)pyrrolidin-2-ylboronic acid] [Compound 1010]” was tested. Which IC50 did it give?
Answer: The IC50 was 2540 nM.

Question: And the “Percent of Control” value (inhibitor 0.005 μM)?
Answer: Its value is 90%.

Question: And the “Percent of Control” value (inhibitor 0.05 μM)?
Answer: Its value is 95%.

Question: And the “Percent of Control” value (inhibitor 0.5 μM)?
Answer: The value was 82%.

Question: And the “Percent of Control” value (inhibitor 5 μM)?
Answer: The value was 26%.

Question: And the “Percent of Control” value (inhibitor 50 μM)?
Answer: Its value is 0%.

Question: What about the “Percent of Control” value (inhibitor 500 μM) of the same substance?
Answer: The value was 0%.

Question: “Re(CO)3[2-((6-(2-(2-boronopyrrolidin-1-yl)-2-oxoethylamino)-6-oxohexyl)(pyridin-2-ylmethyl)amino)acetic acid] [Compound 1016]” was tested. Which IC50 did it give?
Answer: Its IC50 is 3530 nM.
